Data set [1] relates to male germ cells. It is filed as in vivo. The settings on record: B16 tumor-bearing mice. As for the experimental part: (§1) A total of 25 young adult mice (10-12 weeks) were randomly divided into 5 groups (n=5 per group). Five mice were used as control. Twenty mice were inoculated intravenously with B16 murine melanoma cells (2×10^5 cells/mouse). Among these 20 tumor-inoculated mice, 5 mice received no further treatment. After one week, the remaining 15 mice were divided into 3 groups and injected with: 1) HNG daily IP (5 mg/Kg body weight) for 2 weeks; 2) CP (200 mg/Kg body weight IP single injection); 3) combined CP with HNG treatment (same doses as above). All mice were sacrificed 3 weeks after tumor inoculation, and 2 weeks after HNG and/or CP treatment. The animals were sacrificed with 5% pentobarbital (200 mg/kg body weight) IP injection after which blood was collected from the right atrium of the heart. One of the testes from each mouse was immersed fixed in Bouin's solution, and the mice were perfused with saline and subsequently perfuse-fixed with 5% glutaraldehyde in 0.05 M cacodylate buffer (pH 7.4). The lungs were dissected out and post fixed in 5% glutaraldehyde solution for 24 hours and stored in cacodylate buffer at 4° C. for the subsequent tumor count (Lue, et al., 2010; Lue, et al., 2009).

In data set [2] the test system is B16 murine melanoma cells. Nature of the data set: Metastatic lung tumors in mouse B16 melanoma model (Experiments 3 and 4). It is filed as in vivo. As for the experimental part: as §1
Experiment 3 was repeated after inoculation of B16 melanoma tumor at week 1 and then treated with the following treatment starting at week 2 (n=5 mice per group): 1). No treatment; 2). HNG IP injections 5 mg/Kg daily; 3) CP 200 mg/Kg single IP injection; 4) HNG 5 mg/Kg/day+CP; 5). HNG IP injections 15 mg/Kg daily; and 6). HNG 15 mg/Kg/day+CP. All animals were euthanized and perfused with 4% paraformaldehyde at the end of week 3. Lungs and testes were collected and processed as in experiment 3.
B16 melanoma tumors in the lung were quantified by counting the number of tumors on the surface of the lungs under stereomicroscopy (Collisson, et al., 2003; Craft, et al., 2005). The size of the tumor was measured using histomorphometry and expressed as average size of tumor. The appearance of the melanoma cells were reviewed and characterized by an expert pathologist.

In data set [3] the test system is 4T1 cells. Nature of the data set: 4T1 mouse mammary cancer model, tumor size and weight. The settings on record: in vivo. The protocol:
A mouse mammary cancer model was used which utilizes 4T1 cells transfected with the luciferase gene. Growth and size of 4T1 mammary tumors were detected by bioluminescence imaging (IVIS Luminia II, Perkin Elmer, Waltham, Mass.). Mice (n=5 to 7 per group) were inoculated with 1×10^6 4 T1 cells into the right third mammary gland, and 7 days later they were left untreated or treated with HNG (5 mg/kg/day IP), CP (100 mg/Kg single IP) or HNG+CP for 14 days. Bioluminescence imaging was conducted at days 7 and 12. Animals were sacrificed and tumors were removed on day 14 after the start of treatment. Mammary tumors were smaller in CP and CP+HNG groups compared to the untreated and HNG-treated animals (Data images not shown).

Data set [4] has as its system ovaries. Type of data set: in vivo. The settings on record: day 14; HNG 5 mg/kg/day IP; CP 100 mg/Kg single IP. The protocol:
A mouse mammary cancer model was used which utilizes 4T1 cells transfected with the luciferase gene. Growth and size of 4T1 mammary tumors were detected by bioluminescence imaging (IVIS Luminia II, Perkin Elmer, Waltham, Mass.). Mice (n=5 to 7 per group) were inoculated with 1×10^6 4 T1 cells into the right third mammary gland, and 7 days later they were left untreated or treated with HNG (5 mg/kg/day IP), CP (100 mg/Kg single IP) or HNG+CP for 14 days. Animals were sacrificed and both ovaries were removed from each mouse on day 14 after the start of treatment. Serial 5-micrometer sections were made. Every 5th section was examined and the number of primordial, primary, and secondary follicles counted (Kim S Y, et al., 2013; Bristol-Gould S K, et al., 2006; Roti Roti E C, et al., 2012). In addition, TUNEL staining for apoptotic cells and oocytes was quantified (Perez G I, et al., 1997; Ben-Aharon I, et al., 2010).

For data set [5], the system named is IGF-1. Nature of the data set: Plasma IGF-1 in mice bearing metastatic lung melanomas. It is filed as in vivo, mouse. The settings on record: 14 days; HNG 5 mg/kg/day IP; CP 200 mg/kg IP single injection.
The test system of data set [6] is mouse B16 melanoma cells. Nature of the data set: Number of metastatic lung tumors, B16 melanoma (Example 9). It is filed as in vivo. The settings on record: day 21; CP 200 mg/kg single IP; HNG 5 mg/kg daily IP 14 days. As for the experimental part:
Methods: Adult male mouse (n=5/group) were seeded with mouse B16 melanoma cells (100,000 cells/mouse) via tail vein on day 1. One week after melanoma cell inoculation, mice were treated either with a single intraperitoneal injection (IP) of CP (200 mg/kg), or daily IP injections of HNG (5 mg/kg), or both for 14 days. Mice were sacrificed at day 21 and lungs were fixed in formaldehyde. Immunohistochemistry was performed on lung metastases with antibodies against phosphorylated-AMPK (p-AMPK), p-4E-BP1 (downstream effector of mTOR) and Ki-67 antigen (a marker of cell proliferation).

[7] abbreviates: Experiment 4, vs non-treated, HNG at both 5 mg/kg BW and 15 mg/kg BW, CP 200 mg/Kg.

Entries after “also recorded” stand apart in the source; their conditions may differ.

Experimental findings from patent US20150374784A1, “COMPOSITIONS AND METHODS FOR REDUCING GERM CELL DEATH” (Los Angeles Biomedical Research Institute at Harbor-UCLA …, priority 2014, published 2015) are described below.

For `O=P1(N(CCCl)CCCl)NCCCO1` (centres unmarked) [CP, cyclophosphamide monohydrate], the testis weight entry in data set [1] (2 weeks after CP 200 mg/Kg single IP) was “significantly decreased the testis weight”. Moreover, the “germ cell apoptosis (percent of seminiferous tubules containing apoptotic germ cells)” value in data set [1] (2 weeks after treatment, CP 200 mg/Kg single IP, HNG 5 mg/Kg daily IP) is on record as “significantly increased germ cell apoptosis”. Moreover, the “size of the melanoma metastasis on the surface of the lungs” value in data set [2] (Experiment 3, vs non-treated tumor-bearing mice) was “decreased number of tumors but also tumor size”. Also, the “number of metastatic tumors on the surface of the lungs” value in data set [2] (Experiment 3, vs non-treated tumor-bearing mice, HNG 5 mg/Kg daily IP 2 weeks, CP 200 mg/Kg single IP) is reported as “decreased number of tumors”. Moreover, in data set [2] (setting [7]), the “number of lung tumors” value was “significantly decreased both the number and size of the tumors”; the “size of the lung tumors” value was “significantly decreased both the number and size of the tumors”. The “histology of metastatic lung melanoma cells” value in data set [2] (HNG 5 mg/kg BW, CP, or both, monohydrate) is “decreased the number of metastatic melanoma cells; also recorded: induced minor differentiation of melanoma cells”. Moreover, the “mammary tumor size (bioluminescence imaging)” value in data set [3] is recorded as “smaller”. In data set [4], the “ovarian follicles in representative sections” value is given as “have less secondary, but more atretic follicles”. The “plasma IGF-1 levels” value in data set [5] is recorded as “modestly suppressed IGF-1”. Moreover, the “decrease in number of metastatic lung tumors compared to non-treated mice” value in data set [6] is about 50%.
